Measured values published in paper PMC12365235, “Molecular mechanisms of thiazide-like diuretics-mediated inhibition of the human Na-Cl cotransporter” (Nature Communications, 2025).

Biological target: T1, hNCC(G230A) (Homo sapiens, UniProt P55017, G230A)
T1 construct: expressed in transfected cells
T1 sequence (P55017 1-1021 G230A): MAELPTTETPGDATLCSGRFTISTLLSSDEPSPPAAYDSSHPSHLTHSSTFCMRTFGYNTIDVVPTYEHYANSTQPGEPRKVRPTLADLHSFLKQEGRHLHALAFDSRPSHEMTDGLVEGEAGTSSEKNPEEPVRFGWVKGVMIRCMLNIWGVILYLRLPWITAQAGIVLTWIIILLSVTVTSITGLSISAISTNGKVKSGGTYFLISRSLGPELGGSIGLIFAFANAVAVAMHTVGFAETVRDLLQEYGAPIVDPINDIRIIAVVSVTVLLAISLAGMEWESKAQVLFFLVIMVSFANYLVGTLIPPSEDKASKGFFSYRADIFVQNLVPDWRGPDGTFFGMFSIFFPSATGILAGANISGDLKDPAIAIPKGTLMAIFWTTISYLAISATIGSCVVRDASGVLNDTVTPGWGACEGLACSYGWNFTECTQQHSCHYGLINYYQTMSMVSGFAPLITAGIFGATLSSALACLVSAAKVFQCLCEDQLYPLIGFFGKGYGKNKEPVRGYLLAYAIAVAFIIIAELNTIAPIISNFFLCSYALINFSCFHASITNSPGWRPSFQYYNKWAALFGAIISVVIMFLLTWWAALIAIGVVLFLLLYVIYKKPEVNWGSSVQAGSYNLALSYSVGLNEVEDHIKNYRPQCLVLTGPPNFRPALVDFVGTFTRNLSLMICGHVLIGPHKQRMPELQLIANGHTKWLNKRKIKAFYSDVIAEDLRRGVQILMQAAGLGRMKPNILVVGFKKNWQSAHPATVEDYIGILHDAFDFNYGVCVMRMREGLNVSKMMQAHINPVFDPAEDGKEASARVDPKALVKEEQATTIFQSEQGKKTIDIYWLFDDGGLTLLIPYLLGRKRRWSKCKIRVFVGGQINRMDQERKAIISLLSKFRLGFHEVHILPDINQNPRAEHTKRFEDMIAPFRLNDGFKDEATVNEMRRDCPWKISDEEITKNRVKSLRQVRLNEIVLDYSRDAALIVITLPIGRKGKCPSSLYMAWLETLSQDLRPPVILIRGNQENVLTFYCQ
Test: 125I- uptake assay, hNCC(G230A) variant
Type: cell-based
Settings: for fold less sensitive than hNCC(WT) / IC50: G230A substitution; for IC50: iodide uptake
Protocol: HEK293S cell lines, cultured in 293 Freestyle medium (Life Technologies; plus 10% fetal bovine serum), stably expressing hNCC and its variants were generated following published protocols. Cells were transfected using Lipofectamine 3000 (Invitrogen) with a pSBbi-RP-based plasmid containing hNCC or its variants and the SB100X vector. Puromycin (2 μg/mL; Gemini Bio-Products) was used for selection of stable cell lines.
To prepare for the uptake experiment, cells were plated at 0.5 × 10^6 cells/well in 24-well plates one day in advance. To activate NCC, cells were treated with a chloride-free hypotonic solution composed of 67.5 mM sodium-, 2.5 mM potassium-, 0.25 mM magnesium-, and 0.25 mM calcium-gluconate, as well as 7.5 mM HEPES pH 7.4 (buffered using Tris) at 37 °C for 10 min[72]. After the activation step, the experiments were carried out at room temperature. Ten minutes before the start of ^125I^− uptake, 70 μM Bumetanide (Thermo Scientific Chemicals) and 100 μM 4,4′-diisothiocyanatostilbene-2,2′-disulfonic acid (DIDS; Sigma) were added to suppress background iodide uptake activity. Indicated thiazide diuretics were also added to the indicated concentrations 10 min before the start of ^125I^− uptake. The original buffer was switched to an uptake buffer composed of 135 mM Na-gluconate, 5 mM K-gluconate, 1 mM Mg-gluconate, 1 mM Ca-gluconate, 70 μM bumetanide, 100 μM DIDS, 1 mM NaI, 0.25 μCi/ml Na^125I (American Radiolabeled Chemicals, Inc.), and 15 mM HEPES pH 7.4 (buffered using Tris), in the presence or absence of thiazide diuretics to initiate ^125I^− uptake. The ^125I^− uptake process lasted 1 h and was stopped by two rapid washes using ice-cold 110 mM MgCl2. Cells lysed using 1% sodium dodecyl sulfate (SDS) were analyzed by scintillation counting.
To calculate the fold change of the half-maximal inhibitory concentration (IC50) between hNCC(WT) and different hNCC variants, individual dose-response curves were normalized first using the smallest mean and the value of the lowest concentration as 0% and 100%, respectively. The normalized data were then fitted using the “EC50 shift” nonlinear regression in GraphPad Prism 10 with the shared EC50Control assigned to be the IC50 of hNCC(WT). The following constraints were used in the EC50 shift analysis. The EC50Control was set to be shared across all curves under analysis and constrained to be greater than 0. The EC50Ratio was constrained to be greater than 0. The bottom, top, and HillSlope were constrained to be 0, 100, and −1, respectively. For Fig. 1f, g and Supplementary Fig. 2d, GraphPad Prism 10 was used to perform curve fitting and IC50 calculation for normalized data using y = 100/(1 + (x/IC50)).

NS(=O)(=O)c1cc(C2(O)NC(=O)c3ccccc32)ccc1Cl (stereo not shown) [chlorthalidone]
fold less sensitive than hNCC(WT): approximately 40 fold
IC50: 930 nM

CC1Cc2ccccc2N1NC(=O)c1ccc(Cl)c(S(N)(=O)=O)c1 (stereo not shown) [indapamide]
fold less sensitive than hNCC(WT): ~ 2 fold
IC50: 29 nM

CN1C(CSCC(F)(F)F)Nc2cc(Cl)c(S(N)(=O)=O)cc2S1(=O)=O (stereo not shown) [polythiazide]
inhibition of transport activity (100 μM polythiazide, G230A): fully inhibited
fold less sensitive than hNCC(WT): ~ 2 fold
IC50: 1.4 nM
